Data taken from ChEMBL document CHEMBL4145608, “Dehydrodiconiferyl Alcohol Inhibits Osteoclast Differentiation and Ovariectomy-Induced Bone Loss through Acting as an Estrogen Receptor Agonist” (J Nat Prod, 2018).
Calls of active or inactive are those of the source. The rule behind the calls is not given here.

Columns and labels:
RAW264.7 [1] = experiment: Inhibition of NF-kappaB signaling pathway in mouse RAW264.7 cells assessed as reduction in RANKL-induced IKKbeta phosphorylation at 10 to 40 uM after 30 mins by Western blot method; type: cell-based
RAW264.7 [2] = experiment: Inhibition of NF-kappaB signaling pathway in mouse RAW264.7 cells assessed as reduction in RANKL-induced IkappaB phosphorylation at 10 to 40 uM after 30 mins by Western blot method; type: cell-based
RAW264.7 [3] = experiment: Inhibition of RANKL-induced osteoclast differentiation in mouse RAW264.7 cells harboring AMPKalpha1 siRNA assessed as decrease in number of TRAP-positive multinucleated cells after 5 days by microscopy; type: functional, cell-based
RAW264.7 [4] = experiment: Inhibition of RANKL-induced osteoclast differentiation in mouse RAW264.7 cells harboring ERbeta siRNA assessed as decrease in number of TRAP-positive multinucleated cells at 20 uM after 5 days by microscopy; type: functional, cell-based
RAW264.7 [5] = experiment: Inhibition of RANKL-induced osteoclast differentiation in mouse RAW264.7 cells harboring ERbeta siRNA assessed as decrease in TRAP mRNA level at 20 uM after 24 hrs by qRT-PCR method; type: functional, cell-based
RAW264.7 [6] = experiment: Inhibition of RANKL-induced osteoclast differentiation in mouse RAW264.7 cells harboring ERbeta siRNA assessed as decrease in NFATc1 mRNA level at 20 uM after 24 hrs by qRT-PCR method; type: functional, cell-based
Mus musculus = experiment: Anti-osteoporotic activity in Balb/c mouse assessed as decrease in OVX-induced trabecular bone surface in femur at 25 to 100 mg/kg, ip administered for 4 weeks daily by microcomputed tomography; type: functional, organism-based

Q: Which results are given for `COc1cc(C2Oc3c(OC)cc(/C=C/CO)cc3C2CO)ccc1O` (configuration not stated)?
A: inhibition (RAW264.7 [1]): Active; inhibition (RAW264.7 [2]): Active; inhibition (RAW264.7 [3]): inactive; inhibition (RAW264.7 [4]): Active; inhibition (RAW264.7 [5]): Active; inhibition (RAW264.7 [6]): Active; Activity (Mus musculus): Active
